Tests used:
[1] = tested on: Aspergillus niger IFO 6342; test: Viable Count of Aspergillus niger IFO 6342 in Erythritol Solution; format: cell-based
Description: (§1) Erythritol solutions of respective concentrations in the range of from 30 to 60% were prepared. To these were inoculated Staphylococcus aureus IFO 13276, Bacillus subtilis IFO 3134, and Escherichia coli IFO 3972 as bacteria, Candida albicans IFO 1549 and Saccharomyces cerevisiae ATCC 9763 as yeasts, Aspergillus niger IFO 6342, Aspergillus flavus IFO 6343, and Penicillium funiculosum IFO 6345 as fungi, respectively, in a population (concentration) of 10,000 cells/mL or more. After the inoculation, the solutions were stored at 30, 37, 45, 50, or 60° C., respectively, for 56 days and the number of viable cell was determined daily. The determination of the number of viable cell was performed by a method of coating 0.1 mL of appropriately diluted sample cultivation on an agar plate and cultivating and counting the number of viable cell (the number of colony) that grew after the cultivation.

[2] = tested on: Penicillium funiculosum IFO 6345; test: Viable Count of Penicillium funiculosum IFO 6345 in Erythritol Solution; format: cell-based
Description: as §1

OC[C@@H](O)[C@@H](O)CO [Erythritol Solution, erythritol]
≥ 10000 cells/mL: The Number of Viable Cell ([1]; 45° C., 30% w/w, Day 0) | The Number of Viable Cell ([1]; 45° C., 30% w/w, Day 3) | The Number of Viable Cell ([1]; 45° C., 30% w/w, Day 7) | The Number of Viable Cell ([1]; 45° C., 30% w/w, Day 14) | The Number of Viable Cell ([1]; 45° C., 30% w/w, Day 28) | The Number of Viable Cell ([1]; 45° C., 40% w/w, Day 0) | The Number of Viable Cell ([1]; 45° C., 40% w/w, Day 3) | The Number of Viable Cell ([1]; 45° C., 40% w/w, Day 7) | The Number of Viable Cell ([1]; 45° C., 40% w/w, Day 14) | The Number of Viable Cell ([1]; 45° C., 50% w/w, Day 0) | The Number of Viable Cell ([1]; 45° C., 50% w/w, Day 3) | The Number of Viable Cell ([1]; 45° C., 50% w/w, Day 7) | The Number of Viable Cell ([1]; 45° C., 50% w/w, Day 14) | The Number of Viable Cell ([1]; 50° C., 30% w/w, Day 0) | The Number of Viable Cell ([1]; 50° C., 40% w/w, Day 0) | The Number of Viable Cell ([1]; 50° C., 40% w/w, Day 3) | The Number of Viable Cell ([1]; 50° C., 50% w/w, Day 0) | The Number of Viable Cell ([1]; 50° C., 50% w/w, Day 3) | The Number of Viable Cell ([1]; 60° C., 30% w/w, Day 0) | The Number of Viable Cell ([1]; 60° C., 40% w/w, Day 0) | The Number of Viable Cell ([1]; 60° C., 50% w/w, Day 0) | The Number of Viable Cell ([1]; 60° C., 60% w/w, Day 0) | The Number of Viable Cell ([2]; 37° C., 30% w/w, Day 0) | The Number of Viable Cell ([2]; 37° C., 30% w/w, Day 3) | The Number of Viable Cell ([2]; 37° C., 30% w/w, Day 7) | The Number of Viable Cell ([2]; 37° C., 30% w/w, Day 14) | The Number of Viable Cell ([2]; 37° C., 30% w/w, Day 28) | The Number of Viable Cell ([2]; 37° C., 30% w/w, Day 56) | The Number of Viable Cell ([2]; 37° C., 40% w/w, Day 0) | The Number of Viable Cell ([2]; 37° C., 40% w/w, Day 3) | The Number of Viable Cell ([2]; 37° C., 40% w/w, Day 7) | The Number of Viable Cell ([2]; 37° C., 40% w/w, Day 14) | The Number of Viable Cell ([2]; 37° C., 40% w/w, Day 28) | The Number of Viable Cell ([2]; 37° C., 40% w/w, Day 56) | The Number of Viable Cell ([2]; 45° C., 30% w/w, Day 0) | The Number of Viable Cell ([2]; 45° C., 40% w/w, Day 0) | The Number of Viable Cell ([2]; 45° C., 50% w/w, Day 0) | The Number of Viable Cell ([2]; 50° C., 30% w/w, Day 0) | The Number of Viable Cell ([2]; 50° C., 40% w/w, Day 0) | The Number of Viable Cell ([2]; 50° C., 50% w/w, Day 0)
7 days: time after which microbes died ([1]; temperature of 50° C. or more)
750 cells/mL: The Number of Viable Cell ([2]; 45° C., 40% w/w, Day 3)
prevented from growing: growth of the microbes ([1]; temperature of 50° C. or more) | growth of the microbes ([2]; temperature of 50° C. or more)
1260 cells/mL: The Number of Viable Cell ([2]; 45° C., 50% w/w, Day 3)
0 cells/mL: The Number of Viable Cell ([1]; 45° C., 30% w/w, Day 56) | The Number of Viable Cell ([1]; 45° C., 40% w/w, Day 28) | The Number of Viable Cell ([1]; 45° C., 40% w/w, Day 56) | The Number of Viable Cell ([1]; 45° C., 50% w/w, Day 28) | The Number of Viable Cell ([1]; 45° C., 50% w/w, Day 56) | The Number of Viable Cell ([1]; 50° C., 30% w/w, Day 3) | The Number of Viable Cell ([1]; 50° C., 30% w/w, Day 7) | The Number of Viable Cell ([1]; 50° C., 30% w/w, Day 14) | The Number of Viable Cell ([1]; 50° C., 30% w/w, Day 28) | The Number of Viable Cell ([1]; 50° C., 30% w/w, Day 56) | The Number of Viable Cell ([1]; 50° C., 40% w/w, Day 7) | The Number of Viable Cell ([1]; 50° C., 40% w/w, Day 14) | The Number of Viable Cell ([1]; 50° C., 40% w/w, Day 28) | The Number of Viable Cell ([1]; 50° C., 40% w/w, Day 56) | The Number of Viable Cell ([1]; 50° C., 50% w/w, Day 7) | The Number of Viable Cell ([1]; 50° C., 50% w/w, Day 14) | The Number of Viable Cell ([1]; 50° C., 50% w/w, Day 28) | The Number of Viable Cell ([1]; 50° C., 50% w/w, Day 56) | The Number of Viable Cell ([1]; 60° C., 30% w/w, Day 3) | The Number of Viable Cell ([1]; 60° C., 30% w/w, Day 7) | The Number of Viable Cell ([1]; 60° C., 30% w/w, Day 14) | The Number of Viable Cell ([1]; 60° C., 30% w/w, Day 28) | The Number of Viable Cell ([1]; 60° C., 30% w/w, Day 56) | The Number of Viable Cell ([1]; 60° C., 40% w/w, Day 3) | The Number of Viable Cell ([1]; 60° C., 40% w/w, Day 7) | The Number of Viable Cell ([1]; 60° C., 40% w/w, Day 14) | The Number of Viable Cell ([1]; 60° C., 40% w/w, Day 28) | The Number of Viable Cell ([1]; 60° C., 40% w/w, Day 56) | The Number of Viable Cell ([1]; 60° C., 50% w/w, Day 3) | The Number of Viable Cell ([1]; 60° C., 50% w/w, Day 7) | The Number of Viable Cell ([1]; 60° C., 50% w/w, Day 14) | The Number of Viable Cell ([1]; 60° C., 50% w/w, Day 28) | The Number of Viable Cell ([1]; 60° C., 50% w/w, Day 56) | The Number of Viable Cell ([1]; 60° C., 60% w/w, Day 3) | The Number of Viable Cell ([1]; 60° C., 60% w/w, Day 7) | The Number of Viable Cell ([1]; 60° C., 60% w/w, Day 14) | The Number of Viable Cell ([1]; 60° C., 60% w/w, Day 28) | The Number of Viable Cell ([1]; 60° C., 60% w/w, Day 56) | The Number of Viable Cell ([2]; 45° C., 30% w/w, Day 7) | The Number of Viable Cell ([2]; 45° C., 30% w/w, Day 14) | The Number of Viable Cell ([2]; 45° C., 30% w/w, Day 28) | The Number of Viable Cell ([2]; 45° C., 30% w/w, Day 56) | The Number of Viable Cell ([2]; 45° C., 40% w/w, Day 7) | The Number of Viable Cell ([2]; 45° C., 40% w/w, Day 14) | The Number of Viable Cell ([2]; 45° C., 40% w/w, Day 28) | The Number of Viable Cell ([2]; 45° C., 40% w/w, Day 56) | The Number of Viable Cell ([2]; 45° C., 50% w/w, Day 7) | The Number of Viable Cell ([2]; 45° C., 50% w/w, Day 14) | The Number of Viable Cell ([2]; 45° C., 50% w/w, Day 28) | The Number of Viable Cell ([2]; 45° C., 50% w/w, Day 56) | The Number of Viable Cell ([2]; 50° C., 30% w/w, Day 3) | The Number of Viable Cell ([2]; 50° C., 30% w/w, Day 7) | The Number of Viable Cell ([2]; 50° C., 30% w/w, Day 14) | The Number of Viable Cell ([2]; 50° C., 30% w/w, Day 28) | The Number of Viable Cell ([2]; 50° C., 30% w/w, Day 56) | The Number of Viable Cell ([2]; 50° C., 40% w/w, Day 3) | The Number of Viable Cell ([2]; 50° C., 40% w/w, Day 7) | The Number of Viable Cell ([2]; 50° C., 40% w/w, Day 14) | The Number of Viable Cell ([2]; 50° C., 40% w/w, Day 28) | The Number of Viable Cell ([2]; 50° C., 40% w/w, Day 56) | The Number of Viable Cell ([2]; 50° C., 50% w/w, Day 3) | The Number of Viable Cell ([2]; 50° C., 50% w/w, Day 7) | The Number of Viable Cell ([2]; 50° C., 50% w/w, Day 14) | The Number of Viable Cell ([2]; 50° C., 50% w/w, Day 28) | The Number of Viable Cell ([2]; 50° C., 50% w/w, Day 56)
370 cells/mL: The Number of Viable Cell ([2]; 45° C., 30% w/w, Day 3)
3 days: time after which microbes died ([2]; temperature of 50° C. or more)

From US6489469B1, “Method for storing or transporting erythritol solution” (Nikken Chemicals Co., Ltd., priority 1999, dated 2002)
